# Data taken from US20180362543A1, “HIV REPLICATION INHIBITOR” (Shionogi & Co., Ltd., priority 2013, published 2018).
# Tested on: HIV (HTLV-III B strain)
# Assay: HIV replication inhibition assay (MTT, MT-4 cells)
# Format: cell-based
# Settings: Human immunodeficiency virus 1, MT4, 96 h, 4 days culture, concentration at which cell cytotoxicity by virus is inhibited 50%
# Procedure: HIV (HTLV-III B strain) persistent infected human T cell strain Molt-4 clone 8 was cultured in 10% Fetal Bovine Serum-containing RPMI-1640 medium and the supernatant was filtrated, then the virus titer was measured and the solution was stored at −80° C. Each anti-human immunodeficiency virus active substance was diluted with the above cultured medium to the designated concentration, which was dispensed into 96 well micro plate by 50 μL. Next, a MT-4 cell suspended liquid was dispensed by 100 μL (2.5×10^4 cells), then the above HIV-containing supernatant diluted with the above cultured medium was added thereto by 50 μL (60 pfu (plaque forming unit)).
# The obtained mixture was cultured at 37° C. in CO2 incubator for four days, then 3-(4,5-dimehylthiazole-2-yl)-2,5-diphenyltetrazolynium bromide (MTT) 5 mg/mL in PBS was added to each well by 30 μL, followed by 1 hr-cultivation. In this step, as formazan was precipitated by reduction of MTT in living cells, the cell supernatant was removed from all well by 150 μL, then a 150 μL of solution (10% Triton X-100 and […]) was added thereto, followed by shaking with a plate mixer, to elute formazan. The formazan was measured with a microreader at OD: 560 nm and 690 nm (wavelength) and the result was compared with the reference. EC50 means the compound concentration at which cell cytotoxicity by virus is inhibited 50%.
row,Structure (SMILES),EC50 [nM]
1,COc1cc2c(cn1)-c1c(C)c(-c3ccc4c(c3C)NCCO4)c([C@H](OC(C)(C)C)C(=O)O)c(C)c1N(S(C)(=O)=O)C2 [Compound 322],11
2,Cc1ccc(-c2c(C)c3c(c(C)c2[C@H](OC(C)(C)C)C(=O)O)N(S(C)(=O)=O)Cc2ccccc2-3)cc1 [Compound 20],13
3,Cc1c(-c2c(C)c3c(c(C)c2[C@H](OC(C)(C)C)C(=O)O)N(S(C)(=O)=O)Cc2ccc(F)c(F)c2-3)ccc2c1NCCO2 [Compound 314],5.3
4,Cc1ccc(-c2c(C)c3c(c(C)c2[C@H](OC(C)(C)C)C(=O)O)N(S(C)(=O)=O)Cc2cccc(Cl)c2-3)cc1 [Compound 302],28.1

# Same assay, conditions: Human immunodeficiency virus 1, MT4, 96 h, Table A-2, four days
row,Structure (SMILES),EC50 [nM]
1,Cc1ccc(-c2c([C@H](OC(C)(C)C)C(=O)O)c(C)c3ncc4cc5ccccc5nc4c3c2C)cc1 [Compound 99],97
2,Cc1ccc(-c2c(C)c3c(c(C)c2[C@H](OC(C)(C)C)C(=O)O)N(S(C)(=O)=O)Cc2ccc(C)cc2-3)cc1 [Compound 110],17
3,Cc1ccc(-c2c(C)c3c(c(C)c2[C@H](OC(C)(C)C)C(=O)O)NS(=O)(=O)Cc2cc(F)ccc2-3)cc1 [Compound 91],4.2
4,Cc1ccc(-c2c(C)c3c(c(C)c2[C@H](OC(C)(C)C)C(=O)O)NS(=O)(=O)N(C2CCCCCC2)CC3)cc1 [Compound 128],10
5,COCCN1CCc2c(C)c(-c3ccc(C)cc3)c([C@H](OC(C)(C)C)C(=O)O)c(C)c2NS1(=O)=O [Compound 132],22
6,Cc1ccc(-c2c([C@H](OC(C)(C)C)C(=O)O)c(C)c3nc(O)c4cc(C(F)(F)F)ccc4c3c2C)cc1 [Compound 98],22
7,Cc1ccc(-c2c(C)c3c(c(C)c2[C@H](OC(C)(C)C)C(=O)O)NS(=O)(=O)N(C2CCOCC2)CC3)cc1 [Compound 131],87
8,Cc1ccc(-c2c(C)c3c(c(C)c2[C@H](OC(C)(C)C)C(=O)O)N(S(C)(=O)=O)Cc2cc(F)c(F)cc2-3)cc1 [Compound 108],12
9,Cc1ccc(-c2c(C)c3c(c(C)c2[C@H](OC(C)(C)C)C(=O)O)NS(=O)(=O)N(Cc2ccc(F)cc2)CC3)cc1 [Compound 133],4.8

# Same assay, conditions: Human immunodeficiency virus 1, MT4, 96 h, Table A-3, four days
row,Structure (SMILES),EC50 [nM]
1,Cc1ccc(-c2c(C)c3c(c(C)c2[C@H](OC(C)(C)C)C(=O)O)NC(=O)N(C2CCCC2)CC3)cc1 [Compound 149],23
2,COc1ccc2c(c1F)CN(S(C)(=O)=O)c1c(C)c([C@H](OC(C)(C)C)C(=O)O)c(-c3ccc(C)cc3)c(C)c1-2 [Compound 174],1.5
3,Cc1ccc(-c2c(C)c3c(c(C)c2[C@H](OC(C)(C)C)C(=O)O)N(S(C)(=O)=O)Cc2cscc2-3)cc1 [Compound 183],21
4,COc1ccc2c(c1)-c1c(C)c(-c3ccc(C)cc3)c([C@H](OC(C)(C)C)C(=O)O)c(C)c1N(S(C)(=O)=O)C2 [Compound 168],24
5,Cc1ccc(-c2c(C)c3c(c(C)c2[C@H](OC(C)(C)C)C(=O)O)N(S(C)(=O)=O)Cc2cccnc2-3)cc1 [Compound 145],39
6,Cc1ccc(-c2c(C)c3c(c(C)c2[C@H](OC(C)(C)C)C(=O)O)NC(=O)N(CC2CCCCC2)CC3)cc1 [Compound 150],22
7,Cc1ccc(-c2c(C)c3c(c(C)c2[C@H](OC(C)(C)C)C(=O)O)N(S(C)(=O)=O)Cc2cc(C(F)(F)F)ccc2-3)cc1 [Compound 159],5.3

# Same assay, conditions: Human immunodeficiency virus 1, MT4, 96 h, Table A-4, four days
row,Structure (SMILES),EC50 [nM]
1,Cc1ccc(-c2c([C@H](OC(C)(C)C)C(=O)O)c(C)c3ncc4cc(F)cnc4c3c2C)cc1 [Compound 239],81
2,Cc1ccc(-c2c([C@H](OC(C)(C)C)C(=O)O)c(C)c3nc(N)c4cc(F)cnc4c3c2C)cc1 [Compound 245],15
3,Cc1ccc(-c2c([C@H](OC(C)(C)C)C(=O)O)c(C)c3nc(O)c4c(c3c2C)CCCN4)cc1 [Compound 221],90
4,Cc1ccc(-c2c(C)c3c(c(C)c2[C@H](OC(C)(C)C)C(=O)O)N(S(C)(=O)=O)Cc2ccncc2-3)cc1 [Compound 210],38
5,Cc1ccc(-c2c([C@H](OC(C)(C)C)C(=O)O)c(C)c3nc(O)c4ccc(C)nc4c3c2C)cc1 [Compound 217],41
6,Cc1ccc(-c2c([C@H](OC(C)(C)C)C(=O)O)c(C)c3nc(O)c4cc(F)c(F)cc4c3c2C)cc1 [Compound 231],78
7,Cc1c([C@H](OC(C)(C)C)C(=O)O)c(-c2ccc(Cl)cc2)c(C)c2c1nc(O)c1cc(F)cnc12 [Compound 238],31

# Same assay, conditions: Human immunodeficiency virus 1, MT4, 96 h, Table A-5, four days
row,Structure (SMILES),EC50 [nM]
1,COc1ccc(-c2c(C)c3c(c(C)c2[C@H](OC(C)(C)C)C(=O)O)N(S(C)(=O)=O)Cc2cccc(F)c2-3)c(C)c1 [Compound 275],15
2,COc1ccc(-c2c(C)c3c(c(C)c2[C@H](OC(C)(C)C)C(=O)O)N(S(C)(=O)=O)Cc2cccc(F)c2-3)cc1 [Compound 263],12
3,Cc1ccc(-c2c(C)c3c(c(C)c2[C@H](OC(C)(C)C)C(=O)O)N(S(C)(=O)=O)Cc2nc(C)ccc2-3)cc1 [Compound 248],11
4,Cc1c(-c2ccc3c(c2)NCCO3)c([C@H](OC(C)(C)C)C(=O)O)c(C)c2c1-c1c(F)cccc1CN2S(C)(=O)=O [Compound 260],14
5,CC(=O)N1Cc2ccccc2-c2c(C)c(-c3ccc(C)cc3)c([C@H](OC(C)(C)C)C(=O)O)c(C)c21 [Compound 290],53
6,Cc1c(-c2c(C)c3c(c(C)c2[C@H](OC(C)(C)C)C(=O)O)N(S(C)(=O)=O)Cc2c(F)ccc(F)c2-3)ccc2c1NCCO2 [Compound 249],5.8
7,Cc1c(-c2ccc3c(c2)CCCO3)c([C@H](OC(C)(C)C)C(=O)O)c(C)c2c1-c1c(F)cccc1CN2S(C)(=O)=O [Compound 266],7.9
8,COc1ccc2c(c1F)CN(S(C)(=O)=O)c1c(C)c([C@H](OC(C)(C)C)C(=O)O)c(-c3ccc4c(c3C)NCCO4)c(C)c1-2 [Compound 293],3.3

# Same assay, conditions: Human immunodeficiency virus 1, MT4, 96 h, Table A-7, four days
row,Structure (SMILES),EC50 [nM]
1,Cc1ccc2c(c1)-c1c(C)c(-c3ccc4c(c3C)NCCO4)c([C@H](OC(C)(C)C)C(=O)O)c(C)c1N(S(C)(=O)=O)C2 [Compound 345],6.8
2,Cc1cccc2c1CN(S(C)(=O)=O)c1c(C)c([C@H](OC(C)(C)C)C(=O)O)c(-c3ccc4c(c3C)NCCO4)c(C)c1-2 [Compound 346],4.8
3,CC(=O)N1Cc2cccc(F)c2-c2c(C)c(-c3ccc4c(c3C)NCCO4)c([C@H](OC(C)(C)C)C(=O)O)c(C)c21 [Compound 342],9
4,Cc1c(-c2ccc3c(c2)OCCO3)c([C@H](OC(C)(C)C)C(=O)O)c(C)c2c1-c1c(F)cccc1CN2S(C)(=O)=O [Compound 336],22
5,Cc1ccc(-c2c(C)c3c(c(C)c2[C@H](OC(C)(C)C)C(=O)O)N(S(C)(=O)=O)Cc2cccc(F)c2-3)cc1N [Compound 352],10
6,Cc1c(-c2c(C)c3c(c(C)c2[C@H](OC(C)(C)C)C(=O)O)N(S(C)(=O)=O)Cc2cccc(F)c2-3)ccc2c1NCCC2 [Compound 359],5.4

# Same assay, conditions: Human immunodeficiency virus 1, MT4, 96 h, Table A-8 (continuation of Tables A-1 to A-9), four days
row,Structure (SMILES),EC50 [nM]
1,Cc1c(-c2ccc(Cl)cc2)c([C@H](OC(C)(C)C)C(=O)O)c(C)c2c1-c1ncccc1CN2S(C)(=O)=O [Compound 369],44
2,COc1cc2c(cn1)-c1c(C)c(-c3ccc(Cl)cc3)c([C@H](OC(C)(C)C)C(=O)O)c(C)c1N(S(C)(=O)=O)C2 [Compound 379],2.3
3,Cc1ccc(-c2c(C)c3c(c(C)c2[C@H](OC(C)(C)C)C(=O)O)N(S(C)(=O)=O)Cc2cccc(F)c2-3)c(O)c1 [Compound 381],5
4,Cc1c(-c2ccc(Cl)c3[nH]ccc23)c([C@H](OC(C)(C)C)C(=O)O)c(C)c2c1-c1c(F)cccc1CN2S(C)(=O)=O [Compound 364],16
5,COc1ccc2c(n1)CN(S(C)(=O)=O)c1c(C)c([C@H](OC(C)(C)C)C(=O)O)c(-c3ccc(C)cc3)c(C)c1-2 [Compound 371],4.6
6,COc1ccnc2c1CN(S(C)(=O)=O)c1c(C)c([C@H](OC(C)(C)C)C(=O)O)c(-c3ccc(C)cc3)c(C)c1-2 [Compound 374],63
7,Cc1ccc(-c2c(C)c3c(c(C)c2[C@H](OC(C)(C)C)C(=O)O)N(S(C)(=O)=O)Cc2cccc(F)c2-3)c(CO)c1 [Compound 394],27
8,Cc1ccc(-c2c(C)c3c(c(C)c2[C@H](OC(C)(C)C)C(=O)O)N(S(C)(=O)=O)Cc2ccc(C(F)(F)F)nc2-3)cc1 [Compound 397],33
9,Cc1ccc(-c2c(C)c3c(c(C)c2[C@H](OC2(C)CCC2)C(=O)O)N(S(C)(=O)=O)Cc2cccc(F)c2-3)cc1 [Compound 375],19
10,COc1cc2c(cn1)-c1c(C)c(-c3ccc(C)cc3C)c([C@H](OC(C)(C)C)C(=O)O)c(C)c1N(S(C)(=O)=O)C2 [Compound 393],4.7

# Same assay, conditions: Table A-2, four days
row,Structure (SMILES),EC50 [nM]
1,Cc1ccc(-c2c(C)c3c(c(C)c2[C@H](OC(C)(C)C)C(=O)O)NS(=O)(=O)Cc2ccc(C)cc2-3)cc1 [Compound 119],43

# Same assay, conditions: Table A-5, four days
row,Structure (SMILES),EC50 [nM]
1,Cc1ccc(-c2c(C)c3c(c(C)c2[C@H](OC(C)(C)C)C(=O)O)N(S(C)(=O)=O)CC2CCCCN32)cc1 (stereo partly drawn) [Compound 288],37

# Same assay, conditions: Table A-7, four days
row,Structure (SMILES),EC50 [nM]
1,Cc1c(-c2ccc(Cl)cc2)c([C@H](OC(C)(C)C)C(=O)O)c(C)c2c1-c1ncc(F)cc1CN2S(C)(=O)=O [Compound 325],11
